Positions of bridges follow the written chain, without caps; N, C: chain ends. Non-standard residues stand in square brackets, D forms with d. Residues, ends and D or L forms follow the SMILES beside them. Ala(imidazol-2-yl) = N[C@@H](Cc1ncc[nH]1)C(=O)O Bounds are passed on as bounds.

This assay deals with T1, IL17-RE-IL-17C (Homo sapiens, UniProt Q8NFR9+Q9P0M4).
T1 sequence (Q9P0M4 whole entry): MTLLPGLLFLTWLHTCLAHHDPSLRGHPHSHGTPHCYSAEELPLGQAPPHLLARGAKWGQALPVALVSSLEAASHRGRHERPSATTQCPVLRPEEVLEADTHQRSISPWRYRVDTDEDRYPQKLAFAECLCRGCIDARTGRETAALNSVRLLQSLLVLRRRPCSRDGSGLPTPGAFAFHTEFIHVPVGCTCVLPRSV
T1 sequence (Q8NFR9 whole entry): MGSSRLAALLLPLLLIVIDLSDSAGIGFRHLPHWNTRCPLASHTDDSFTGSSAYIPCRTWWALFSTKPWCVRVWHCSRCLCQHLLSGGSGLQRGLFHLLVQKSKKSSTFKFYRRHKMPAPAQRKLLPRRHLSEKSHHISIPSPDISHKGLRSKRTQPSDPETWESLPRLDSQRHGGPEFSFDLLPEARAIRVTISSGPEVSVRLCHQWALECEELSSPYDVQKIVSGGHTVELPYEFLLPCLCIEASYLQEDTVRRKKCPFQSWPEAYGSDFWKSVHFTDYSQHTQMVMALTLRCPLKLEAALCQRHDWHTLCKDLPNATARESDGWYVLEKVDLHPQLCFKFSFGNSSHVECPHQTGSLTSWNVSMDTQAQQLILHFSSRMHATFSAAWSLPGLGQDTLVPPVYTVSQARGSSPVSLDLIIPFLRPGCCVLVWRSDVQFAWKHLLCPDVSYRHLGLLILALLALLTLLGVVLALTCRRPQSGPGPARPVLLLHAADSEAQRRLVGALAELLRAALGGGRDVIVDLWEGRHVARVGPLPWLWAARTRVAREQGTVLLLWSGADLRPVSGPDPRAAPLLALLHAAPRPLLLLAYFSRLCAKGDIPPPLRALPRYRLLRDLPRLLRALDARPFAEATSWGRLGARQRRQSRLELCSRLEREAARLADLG
The assay is described as follows: Inhibition of IL-17C/IL-17RE interaction (unknown origin) incubated for 1.5 hrs by ELISA method. Type of assay: protein-complex assay.
Take `CC[C@H](C)[C@@H]1NC(=O)[C@H](Cc2c[nH]cn2)NC(=O)[C@H](Cc2ccc(O)cc2)NC(=O)CSC[C@@H](C(=O)NCC(N)=O)NC(=O)CNC(=O)[C@H](CC(C)C)NC(=O)[C@H](CC(N)=O)NC(=O)CNC(=O)[C@H](Cc2ccc(O)cc2)NC(=O)[C@H](CC(C)C)NC(=O)[C@H]([C@@H](C)CC)NC(=O)[C@H](CCCNC(=N)N)NC(=O)[C@H](Cc2ccc(O)cc2)NC(=O)[C@H](Cc2ccc(O)cc2)NC1=O` ({CH2CO}-YHIYYRILYGNLGCG-NH2; thioether N-14): the IC50 worked out at 4.5 nM. That is a single-digit nanomolar value.
The molecule `CC[C@H](C)[C@@H]1NC(=O)[C@H](Cc2c[nH]cn2)NC(=O)[C@H](Cc2ccc(O)cc2)NC(=O)CSC[C@@H](C(=O)NCC(N)=O)NC(=O)CNC(=O)[C@H](CC(C)C)NC(=O)[C@H](C)NC(=O)CNC(=O)[C@H](Cc2ccc(O)cc2)NC(=O)[C@H](CC(C)C)NC(=O)[C@H](CO)NC(=O)[C@H](C)NC(=O)[C@H](Cc2ccc(O)cc2)NC(=O)[C@H](Cc2ccc(O)cc2)NC1=O` ({CH2CO}-YHIYYASLYGALGCG-NH2; thioether N-14) had an IC50 of 9.2 nM.
As to `CC(C)C[C@@H]1NC(=O)[C@H](CC(N)=O)NC(=O)CNC(=O)[C@H](Cc2ccc(O)cc2)NC(=O)[C@H](CC(C)C)NC(=O)[C@H](CO)NC(=O)[C@H](Cc2ccc(O)cc2)NC(=O)[C@H](Cc2ccc(O)cc2)NC(=O)[C@H](Cc2ccc(O)cc2)NC(=O)[C@H](CC(C)C)NC(=O)[C@H](Cc2c[nH]cn2)NC(=O)[C@H](Cc2ccc(O)cc2)NC(=O)CSC[C@@H](C(=O)NCC(N)=O)NC(=O)CNC1=O` ({CH2CO}-YHLYYYSLYGNLGCG-NH2; thioether N-14), the IC50 stood at 5.5 nM.
The molecule `CC[C@H](C)[C@@H]1NC(=O)[C@H](CCCNC(=N)N)NC(=O)[C@H](Cc2ccc(O)cc2)NC(=O)[C@H](Cc2ccc(O)cc2)NC(=O)[C@@H]2CCCN2C(=O)[C@H](Cc2c[nH]cn2)NC(=O)[C@H](Cc2ccc(O)cc2)NC(=O)CSC[C@@H](C(=O)NCC(N)=O)NC(=O)CNC(=O)[C@H](CC(C)C)NC(=O)[C@H](CCC(=O)O)NC(=O)CNC(=O)[C@H](Cc2ccc(O)cc2)NC(=O)[C@H](CC(C)C)NC1=O` ({CH2CO}-YHPYYRILYGELGCG-NH2; thioether N-14) registered an IC50 above 30000 nM.
Molecule `CC[C@H](C)[C@@H]1NC(=O)[C@H](CCCNC(=N)N)NC(=O)[C@H](Cc2c[nH]cn2)NC(=O)[C@H](Cc2ccc(O)cc2)NC(=O)[C@H](Cc2c[nH]cn2)NC(=O)[C@H](Cc2c[nH]cn2)NC(=O)[C@H](Cc2ccc(O)cc2)NC(=O)CSC[C@@H](C(=O)NCC(N)=O)NC(=O)CNC(=O)[C@H](CC(C)C)NC(=O)[C@H](CCC(=O)O)NC(=O)CNC(=O)[C@H](Cc2ccc(O)cc2)NC(=O)[C@H](CC(C)C)NC1=O` ({CH2CO}-YHHYHRILYGELGCG-NH2; thioether N-14) displayed a half-maximal inhibitory concentration (IC50) above 30000 nM.
Molecule `CC(C)C[C@@H]1NC(=O)[C@H](C)NC(=O)[C@H](Cc2ccc(O)cc2)NC(=O)[C@H](Cc2ccc(O)cc2)NC(=O)[C@H](Cc2ccc(O)cc2)NC(=O)[C@H](CC(C)C)NC(=O)[C@H](Cc2ncc[nH]2)NC(=O)[C@H](Cc2ccc(O)cc2)NC(=O)CSC[C@@H](C(=O)NCC(N)=O)NC(=O)CNC(=O)[C@H](CC(C)C)NC(=O)[C@H](CC(N)=O)NC(=O)CNC(=O)[C@H](Cc2ccc(O)cc2)NC1=O` ({CH2CO}-Y[Ala(imidazol-2-yl)]LYYYALYGNLGCG-NH2; thioether N-14) registered a half-maximal inhibitory concentration (IC50) of 11.8 nM. This counts as double-digit nanomolar.
For the molecule `CC(C)C[C@@H]1NC(=O)[C@H](CC(N)=O)NC(=O)CNC(=O)[C@H](Cc2ccc(O)cc2)NC(=O)[C@H](CC(C)C)NC(=O)[C@H](CO)NC(=O)[C@H](C)NC(=O)[C@H](Cc2ccc(O)cc2)NC(=O)[C@H](Cc2ccc(O)cc2)NC(=O)[C@H](CC(C)C)NC(=O)[C@H](Cc2c[nH]cn2)NC(=O)[C@H](Cc2ccc(O)cc2)NC(=O)CSC[C@@H](C(=O)NCC(N)=O)NC(=O)CNC1=O` ({CH2CO}-YHLYYASLYGNLGCG-NH2; thioether N-14), the IC50 is 9.6 nM.
The molecule `CC[C@H](C)[C@@H]1NC(=O)[C@H](CCCNC(=N)N)NC(=O)[C@H](Cc2ccc(O)cc2)NC(=O)[C@H](Cc2ccc(O)cc2)NC(=O)[C@H](Cc2c[nH]cn2)NC(=O)[C@H](Cc2c[nH]cn2)NC(=O)[C@H](Cc2ccc(O)cc2)NC(=O)CSC[C@@H](C(=O)NCC(N)=O)NC(=O)CNC(=O)[C@H](CC(C)C)NC(=O)[C@H](CCC(=O)O)NC(=O)CNC(=O)[C@H](Cc2ccc(O)cc2)NC(=O)[C@H](C)NC1=O` ({CH2CO}-YHHYYRIAYGELGCG-NH2; thioether N-14) yielded a half-maximal inhibitory concentration (IC50) above 30000 nM.
`CC[C@H](C)[C@@H]1NC(=O)[C@H](Cc2c[nH]cn2)NC(=O)[C@H](Cc2ccc(O)cc2)NC(=O)CSC[C@@H](C(=O)NCC(N)=O)NC(=O)CNC(=O)[C@H](CC(C)C)NC(=O)[C@H](CO)NC(=O)CNC(=O)[C@H](Cc2ccc(O)cc2)NC(=O)[C@H](CC(C)C)NC(=O)[C@H]([C@@H](C)CC)NC(=O)[C@H](CCCNC(=N)N)NC(=O)[C@H](Cc2ccc(O)cc2)NC(=O)[C@H](Cc2ccc(O)cc2)NC1=O` ({CH2CO}-YHIYYRILYGSLGCG-NH2; thioether N-14) had a 50% inhibitory concentration (IC50) of 6.3 nM.
`CC[C@H](C)[C@@H]1NC(=O)[C@H](CCCNC(=N)N)NC(=O)[C@H](Cc2ccc(O)cc2)NC(=O)[C@H](C)NC(=O)[C@H](Cc2c[nH]cn2)NC(=O)[C@H](Cc2c[nH]cn2)NC(=O)[C@H](Cc2ccc(O)cc2)NC(=O)CSC[C@@H](C(=O)NCC(N)=O)NC(=O)CNC(=O)[C@H](CC(C)C)NC(=O)[C@H](CCC(=O)O)NC(=O)CNC(=O)[C@H](Cc2ccc(O)cc2)NC(=O)[C@H](CC(C)C)NC1=O` ({CH2CO}-YHHAYRILYGELGCG-NH2; thioether N-14) showed a concentration for half-maximal inhibition (IC50) above 30000 nM.
Molecule `CC[C@H](C)[C@@H]1NC(=O)[C@H](CCCNC(=N)N)NC(=O)[C@H](Cc2ccc(O)cc2)NC(=O)[C@H](Cc2ccc(O)cc2)NC(=O)[C@H](Cc2c[nH]cn2)NC(=O)[C@H](Cc2c[nH]cn2)NC(=O)[C@H](Cc2ccc(O)cc2)NC(=O)CSC[C@@H](C(=O)NCC(N)=O)NC(=O)CNC(=O)[C@H](CC(C)C)NC(=O)CNC(=O)CNC(=O)[C@H](Cc2ccc(O)cc2)NC(=O)[C@H](CC(C)C)NC1=O` ({CH2CO}-YHHYYRILYGGLGCG-NH2; thioether N-14) had an IC50 of 211 nM.
Take `CC(C)C[C@@H]1NC(=O)[C@H](CC(C)C)NC(=O)[C@H](CO)NC(=O)[C@H](CCC(=O)O)NC(=O)[C@H](CC(C)C)NC(=O)[C@H](Cc2ccc(O)cc2)NC(=O)CSC[C@@H](C(=O)NCC(N)=O)NC(=O)[C@H](Cc2ccc(O)cc2)NC(=O)[C@H](Cc2ccc(O)cc2)NC(=O)[C@H](CC(N)=O)NC(=O)[C@H](CC(N)=O)NC(=O)[C@H](CO)NC(=O)CNC1=O` ({CH2CO}-YLESLLGSNNYYCG-NH2; thioether N-13): the concentration for half-maximal inhibition (IC50) was above 30000 nM.
For `CC[C@H](C)[C@@H]1NC(=O)[C@H](CCCNC(=N)N)NC(=O)[C@H](Cc2ccccc2)NC(=O)[C@H](Cc2ccc(O)cc2)NC(=O)[C@H](Cc2c[nH]cn2)NC(=O)[C@H](Cc2c[nH]cn2)NC(=O)[C@H](Cc2ccc(O)cc2)NC(=O)CSC[C@@H](C(=O)NCC(N)=O)NC(=O)CNC(=O)[C@H](CC(C)C)NC(=O)[C@H](CCC(=O)O)NC(=O)CNC(=O)[C@H](Cc2ccc(O)cc2)NC(=O)[C@H](CC(C)C)NC1=O` ({CH2CO}-YHHYFRILYGELGCG-NH2; thioether N-14), half-maximal inhibition (IC50) was put at 3970 nM.
Then `CC[C@H](C)[C@@H]1NC(=O)[C@H](CCCNC(=N)N)NC(=O)[C@H](Cc2ccc(O)cc2)NC(=O)[C@H](Cc2ccc(O)cc2)NC(=O)[C@H](Cc2c[nH]cn2)NC(=O)[C@H](Cc2c[nH]cn2)NC(=O)[C@H](Cc2ccc(O)cc2)NC(=O)CSC[C@@H](C(=O)NCC(N)=O)NC(=O)CNC(=O)[C@H](CC(C)C)NC(=O)[C@H](CCC(=O)O)NC(=O)CNC(=O)[C@H](Cc2ccccc2)NC(=O)[C@H](CC(C)C)NC1=O` ({CH2CO}-YHHYYRILFGELGCG-NH2; thioether N-14), with 1230 nM; and `CC[C@H](C)[C@@H]1NC(=O)[C@H](CCCNC(=N)N)NC(=O)[C@H](Cc2ccc(O)cc2)NC(=O)[C@H](Cc2ccccc2)NC(=O)[C@H](Cc2c[nH]cn2)NC(=O)[C@H](Cc2c[nH]cn2)NC(=O)[C@H](Cc2ccc(O)cc2)NC(=O)CSC[C@@H](C(=O)NCC(N)=O)NC(=O)CNC(=O)[C@H](CC(C)C)NC(=O)[C@H](CCC(=O)O)NC(=O)CNC(=O)[C@H](Cc2ccc(O)cc2)NC(=O)[C@H](CC(C)C)NC1=O` ({CH2CO}-YHHFYRILYGELGCG-NH2; thioether N-14), with 171 nM.
Then `CC[C@H](C)[C@@H]1NC(=O)[C@H](Cc2c[nH]c3ccccc23)NC(=O)[C@H](CC(N)=O)NC(=O)[C@H](Cc2ccc(O)cc2)NC(=O)[C@H](Cc2ccc(O)cc2)NC(=O)CSC[C@@H](C(=O)NCC(N)=O)NC(=O)[C@H](CO)NC(=O)[C@H]([C@@H](C)O)NC(=O)[C@H](CC(N)=O)NC(=O)[C@H](Cc2ccc(O)cc2)NC(=O)[C@H](Cc2ccc(O)cc2)NC(=O)[C@H](Cc2ccccc2)NC(=O)[C@H](Cc2c[nH]cn2)NC(=O)[C@H](CC(=O)O)NC1=O` ({CH2CO}-YYNWIDHFYYNTSCG-NH2; thioether N-14), with above 30000 nM.

For the origin of these results see ChEMBL document CHEMBL5360618, “PepScaf: Harnessing Machine Learning with In Vitro Selection toward De Novo Macrocyclic Peptides against IL-17C/IL-17RE Interaction” (J Med Chem, 2023).
